In the NIST ThermoML archive (doi:10.1016/j.jct.2005.10.006):
Where “and” joins values, the source holds several entries; their conditions need not be identical. Equal values may be shown once.

Experiment: xn = mol fraction of the nth substance listed
Settings: Fluid (supercritical or subcritical phases), Spherical resonator

N#N [nitrogen] + C
Settings | speed of sound
170 K, 124.7 kPa, x1 = 0.5422 | 291.53 m/s
170 K, 150 kPa, x1 = 0.5422 | 291.29 m/s
170 K, 174.8 kPa, x1 = 0.5422 | 291.06 m/s
170 K, 199.8 kPa, x1 = 0.5422 | 290.83 m/s
170 K, 224.8 kPa, x1 = 0.5422 | 290.59 m/s
170 K, 249.8 kPa, x1 = 0.5422 | 290.36 m/s
170 K, 279.7 kPa, x1 = 0.5422 | 290.07 m/s
170 K, 280 kPa, x1 = 0.5422 | 290.07 m/s
170 K, 409.7 kPa, x1 = 0.5422 | 288.85 m/s
170 K, 409.8 kPa, x1 = 0.5422 | 288.85 m/s
170 K, 680.3 kPa, x1 = 0.5422 | 286.28 m/s
170 K, 680.4 kPa, x1 = 0.5422 | 286.28 m/s
170 K, 1293 kPa, x1 = 0.5422 | 280.36 m/s
170 K, 2374 kPa, x1 = 0.5422 | 269.67 m/s and 269.68 m/s
170 K, 3248 kPa, x1 = 0.5422 | 261.01 m/s
170 K, 3249 kPa, x1 = 0.5422 | 260.99 m/s
170 K, 3953 kPa, x1 = 0.5422 | 254.33 m/s
170 K, 3954 kPa, x1 = 0.5422 | 254.32 m/s
170 K, 4555 kPa, x1 = 0.5422 | 249.39 m/s
170 K, 4572 kPa, x1 = 0.5422 | 249.51 m/s
190 K, 311.9 kPa, x1 = 0.5422 | 307.35 m/s
190 K, 457.6 kPa, x1 = 0.5422 | 306.42 m/s
190 K, 762.5 kPa, x1 = 0.5422 | 304.49 m/s
190 K, 1464 kPa, x1 = 0.5422 | 300.13 m/s
190 K, 2748 kPa, x1 = 0.5422 | 292.7 m/s
190 K, 3852 kPa, x1 = 0.5422 | 287.32 m/s
190 K, 4810 kPa, x1 = 0.5422 | 284.03 m/s
190 K, 5716 kPa, x1 = 0.5422 | 282.84 m/s
215 K, 351.4 kPa, x1 = 0.5422 | 327.5 m/s
215 K, 516.2 kPa, x1 = 0.5422 | 326.87 m/s
215 K, 863.4 kPa, x1 = 0.5422 | 325.57 m/s
215 K, 1672 kPa, x1 = 0.5422 | 322.77 m/s
215 K, 3199 kPa, x1 = 0.5422 | 318.49 m/s
215 K, 4573 kPa, x1 = 0.5422 | 316.24 m/s
215 K, 5826 kPa, x1 = 0.5422 | 316.02 m/s
215 K, 7070 kPa, x1 = 0.5422 | 317.96 m/s
220 K, 99.6 kPa, x1 = 0.2 | 363.86 m/s
220 K, 101.5 kPa, x1 = 0.2 | 363.89 m/s
220 K, 200 kPa, x1 = 0.1 | 374.49 m/s
220 K, 249.1 kPa, x1 = 0.2 | 362.81 m/s
220 K, 249.2 kPa, x1 = 0.2 | 362.81 m/s
220 K, 249.5 kPa, x1 = 0.2 | 362.85 m/s
220 K, 498.6 kPa, x1 = 0.2 | 361.06 m/s
220 K, 498.8 kPa, x1 = 0.2 | 361.05 m/s
220 K, 499.1 kPa, x1 = 0.2 | 361.09 m/s
220 K, 501.4 kPa, x1 = 0.1 | 371.96 m/s
220 K, 998.6 kPa, x1 = 0.2 | 357.56 m/s
220 K, 999.3 kPa, x1 = 0.2 | 357.56 m/s
220 K, 1001 kPa, x1 = 0.1 | 367.77 m/s
220 K, 1003 kPa, x1 = 0.2 | 357.57 m/s
220 K, 2006 kPa, x1 = 0.2 | 350.72 m/s
220 K, 2007 kPa, x1 = 0.1 | 359.38 m/s
220 K, 2008 kPa, x1 = 0.2 | 350.73 m/s
220 K, 3014 kPa, x1 = 0.2 | 344.27 m/s
220 K, 3016 kPa, x1 = 0.2 | 344.28 m/s
220 K, 3018 kPa, x1 = 0.1 | 351.21 m/s
220 K, 4002 kPa, x1 = 0.2 | 338.63 m/s
220 K, 4034 kPa, x1 = 0.2 | 338.48 m/s
220 K, 4040 kPa, x1 = 0.1 | 343.53 m/s
220 K, 5057 kPa, x1 = 0.2 | 333.84 m/s
220 K, 6079 kPa, x1 = 0.2 | 331.09 m/s
220 K, 6099 kPa, x1 = 0.1 | 332.63 m/s
220 K, 7000 kPa, x1 = 0.2 | 331.07 m/s
220 K, 7981 kPa, x1 = 0.2 | 334.7 m/s
220 K, 8215 kPa, x1 = 0.1 | 339.23 m/s
220 K, 9000 kPa, x1 = 0.2 | 343.57 m/s
220 K, 9974 kPa, x1 = 0.2 | 357.39 m/s
220 K, 10421 kPa, x1 = 0.1 | 383.6 m/s
220 K, 10996 kPa, x1 = 0.2 | 376.87 m/s
220 K, 12068 kPa, x1 = 0.2 | 401.11 m/s
220 K, 12996 kPa, x1 = 0.2 | 423.71 m/s
220 K, 14014 kPa, x1 = 0.2 | 449.03 m/s
220 K, 14274 kPa, x1 = 0.1 | 498.94 m/s
220 K, 14891 kPa, x1 = 0.2 | 470.66 m/s
220 K, 16024 kPa, x1 = 0.2 | 497.89 m/s
220 K, 16645 kPa, x1 = 0.1 | 562.65 m/s
220 K, 17031 kPa, x1 = 0.2 | 521.17 m/s
220 K, 18043 kPa, x1 = 0.1 | 596.39 m/s
220 K, 18088 kPa, x1 = 0.2 | 544.6 m/s
220 K, 19087 kPa, x1 = 0.2 | 565.86 m/s
220 K, 19556 kPa, x1 = 0.2 | 575.49 m/s
220 K, 19985 kPa, x1 = 0.1 | 639.27 m/s
220 K, 25037 kPa, x1 = 0.2 | 675.84 m/s
220 K, 30201 kPa, x1 = 0.2 | 753.84 m/s
250 K, 99.6 kPa, x1 = 0.2 | 387.32 m/s
250 K, 105 kPa, x1 = 0.2 | 387.33 m/s
250 K, 199.6 kPa, x1 = 0.1 | 398.92 m/s
250 K, 249.1 kPa, x1 = 0.2 | 386.69 m/s
250 K, 249.5 kPa, x1 = 0.2 | 386.7 m/s
250 K, 405.3 kPa, x1 = 0.5422 | 353.38 m/s
250 K, 498.3 kPa, x1 = 0.2 | 385.62 m/s
250 K, 499.1 kPa, x1 = 0.1 | 397.32 m/s
250 K, 499.1 kPa, x1 = 0.2 | 385.63 m/s
250 K, 596.4 kPa, x1 = 0.5422 | 353.08 m/s
250 K, 998.2 kPa, x1 = 0.2 | 383.53 m/s
250 K, 998.9 kPa, x1 = 0.2 | 383.54 m/s
250 K, 999.8 kPa, x1 = 0.1 | 394.71 m/s
250 K, 1001 kPa, x1 = 0.5422 | 352.48 m/s
250 K, 1955 kPa, x1 = 0.5422 | 351.35 m/s
250 K, 2002 kPa, x1 = 0.2 | 379.64 m/s
250 K, 2004 kPa, x1 = 0.1 | 389.75 m/s
250 K, 2005 kPa, x1 = 0.2 | 379.64 m/s
250 K, 2974 kPa, x1 = 0.1 | 385.4 m/s
250 K, 3002 kPa, x1 = 0.2 | 376.26 m/s
250 K, 3014 kPa, x1 = 0.2 | 376.24 m/s
250 K, 3805 kPa, x1 = 0.5422 | 350.46 m/s
250 K, 4021 kPa, x1 = 0.2 | 373.48 m/s
250 K, 4026 kPa, x1 = 0.2 | 373.48 m/s
250 K, 4027 kPa, x1 = 0.1 | 381.43 m/s
250 K, 4989 kPa, x1 = 0.2 | 371.62 m/s
250 K, 5030 kPa, x1 = 0.2 | 371.55 m/s
250 K, 5041 kPa, x1 = 0.1 | 378.44 m/s
250 K, 5536 kPa, x1 = 0.5422 | 351.48 m/s
250 K, 5903 kPa, x1 = 0.2 | 370.69 m/s
250 K, 6000 kPa, x1 = 0.2 | 370.66 m/s
250 K, 6066 kPa, x1 = 0.1 | 376.58 m/s
250 K, 7002 kPa, x1 = 0.2 | 370.93 m/s
250 K, 7089 kPa, x1 = 0.1 | 376.21 m/s
250 K, 7176 kPa, x1 = 0.5422 | 354.43 m/s
250 K, 8018 kPa, x1 = 0.2 | 372.66 m/s
250 K, 8117 kPa, x1 = 0.1 | 377.7 m/s
250 K, 8849 kPa, x1 = 0.5422 | 359.54 m/s
250 K, 8859 kPa, x1 = 0.5422 | 359.5 m/s
250 K, 9001 kPa, x1 = 0.2 | 375.95 m/s
250 K, 9155 kPa, x1 = 0.1 | 381.49 m/s
250 K, 10175 kPa, x1 = 0.2 | 382.17 m/s
250 K, 10204 kPa, x1 = 0.1 | 387.94 m/s
250 K, 11195 kPa, x1 = 0.2 | 389.7 m/s
250 K, 11238 kPa, x1 = 0.1 | 397.06 m/s
250 K, 12284 kPa, x1 = 0.1 | 408.99 m/s
250 K, 13078 kPa, x1 = 0.2 | 408.65 m/s
250 K, 13320 kPa, x1 = 0.1 | 423.21 m/s
250 K, 14003 kPa, x1 = 0.2 | 420.05 m/s
250 K, 14166 kPa, x1 = 0.1 | 436.28 m/s
250 K, 15044 kPa, x1 = 0.1 | 450.92 m/s
250 K, 15316 kPa, x1 = 0.2 | 438.11 m/s
250 K, 16059 kPa, x1 = 0.2 | 449.07 m/s
250 K, 16075 kPa, x1 = 0.1 | 469.1 m/s
250 K, 17054 kPa, x1 = 0.2 | 464.35 m/s
250 K, 17093 kPa, x1 = 0.1 | 487.71 m/s
250 K, 18084 kPa, x1 = 0.1 | 506.09 m/s
250 K, 18089 kPa, x1 = 0.2 | 480.72 m/s
250 K, 18990 kPa, x1 = 0.1 | 522.94 m/s
250 K, 19031 kPa, x1 = 0.2 | 495.86 m/s
250 K, 19850 kPa, x1 = 0.2 | 509.09 m/s
250 K, 19992 kPa, x1 = 0.1 | 541.47 m/s
250 K, 25516 kPa, x1 = 0.1 | 637.9 m/s
